In brackets after ≈: the same amount, converted by molar mass.
Legend:
[1] = target: T1, farnesyl transferase (파네실 전달효소) (Rattus norvegicus, UniProt Q02293+Q04631); experiment: Farnesyl transferase inhibition, SPA with 3H-FPP and biotin-lamin B peptide; format: biochemical, rat (Sprague Dawley); conditions: 50% inhibitory concentration; room temperature, 30 min
T1 construct: Q 세파로즈 고속 칼럼(Q Sepharose Fast Flow column)을 이용하여 부분 정제한 것을 사용하였다; from tissue; host or cells: rat (Sprague Dawley, male) brain homogenate, partially purified on Q Sepharose Fast Flow

Solubility = format: physicochemical
[2] = test system: colorectal cancer cells HCT116 (대장암세포 HCT116); experiment: WST-1 growth inhibition, HCT116; format: cell-based; conditions: Homo sapiens, HCT-116, HCT116, 48 h
[3] = test system: colorectal cancer cells HCA-7 (대장암세포 HCA-7); experiment: WST-1 growth inhibition, HCA-7; format: cell-based; conditions: Homo sapiens, HCA-7, 48 h
[4] = test system: colorectal cancer cells SW620 (대장암세포 SW620); experiment: WST-1 growth inhibition, SW620; format: cell-based; conditions: Homo sapiens, SW-620, SW620, 48 h
[5] = test system: lung cancer cells NCI-H23 (폐암세포 NCI-H23); experiment: WST-1 growth inhibition, NCI-H23; format: cell-based; conditions: Homo sapiens, NCI-H23, 48 h
[6] = test system: lung cancer cells A549 (폐암세포 A549); experiment: WST-1 growth inhibition, A549; format: cell-based; conditions: Homo sapiens, A549, 48 h
[7] = test system: breast cancer cells MDA-MB-231 (유방암세포 MDA-MB-231); experiment: WST-1 growth inhibition, MDA-MB-231; format: cell-based; conditions: Homo sapiens, MDA-MB-231, 48 h
HEK293 (신장암세포 HEK293) = experiment: WST-1 growth inhibition, HEK293; format: cell-based; conditions: Homo sapiens, HEK293, 48 h
[8] = test system: prostate cancer cells DU145 (전립선암세포 DU145); experiment: WST-1 growth inhibition, DU145; format: cell-based; conditions: Homo sapiens, DU-145, DU145, 48 h

Row | Structure (SMILES) | IC50 [1] [µM] | solubility (Solubility; Alcohols, DMSO) | solubility (Solubility; Hexane, H2O) | GI50 [2] [µg/mL] | GI50 [3] [µg/mL] | GI50 [4] [µg/mL] | GI50 [5] [µg/mL] | GI50 [6] [µg/mL] | GI50 [7] [µg/mL] | GI50 (HEK293 (신장암세포 HEK293)) [µg/mL] | GI50 [8] [µg/mL]
1 | COC1=CC(=O)C(=C(O)/C=C/c2ccccc2)C1=O [Lucidone, lucidone] | 125 | 가용성 | 불용성 |  |  |  |  |  |  |  | 
2 | COC(/C=C/c1ccccc1)=C1C(=O)C(OC)=C(OC)C1=O [Methyllinderone, methyllinderone] | 43.3 | 가용성 | 불용성 | 0.45 (≈ 1.5 µM) | 0.52 (≈ 1.73 µM) | 3.5 (≈ 11.7 µM) | 1.1 (≈ 3.66 µM) | 3.2 (≈ 10.7 µM) | 3.8 (≈ 12.7 µM) | 3 (≈ 9.99 µM) | 
3 | COC1=CC(=O)C(=C(/C=C/c2ccccc2)OC)C1=O [Methyllucidone, methyllucidone] | 40.7 | 가용성 | 불용성 | 0.26 (≈ 0.962 µM) | 0.39 (≈ 1.44 µM) | 2 (≈ 7.4 µM) | 1 (≈ 3.7 µM) | 15 (≈ 55.5 µM) | 3.5 (≈ 12.9 µM) | 4.8 (≈ 17.8 µM) | 1.8 (≈ 6.66 µM)
4 | COC1=C(OC)C(=O)C(=C(O)/C=C/c2ccccc2)C1=O [Linderone, linderone] | 33.3 | 가용성 | 불용성 |  |  |  |  |  |  |  | 

Reference: KR20060104555A, “사이클로펜타디온 유도체를 포함하는 항암 조성물” (한국생명공학연구원, priority 2005, dated 2006)
